Test results as given in patent US10973832B2, “Muscarinic M1 receptor agonists” (Heptares Therapeutics Limited, priority 2011, dated 2021).

Tests used:
Assay type in all cases: cell-based
[1] = biological target: T1, human muscarinic M1 receptor (Homo sapiens, UniProt P11229); assay: Phospho-ERK1/2 assay, muscarinic M1; settings: for EC50: CHO cells expressing human M1, phospho-ERK1/2 Alphascreen, read-out: pEC50 M1 (converted); for Emax: CHO, read-out: % Emax cf. ACh (M1)
T1 sequence (P11229 1-460): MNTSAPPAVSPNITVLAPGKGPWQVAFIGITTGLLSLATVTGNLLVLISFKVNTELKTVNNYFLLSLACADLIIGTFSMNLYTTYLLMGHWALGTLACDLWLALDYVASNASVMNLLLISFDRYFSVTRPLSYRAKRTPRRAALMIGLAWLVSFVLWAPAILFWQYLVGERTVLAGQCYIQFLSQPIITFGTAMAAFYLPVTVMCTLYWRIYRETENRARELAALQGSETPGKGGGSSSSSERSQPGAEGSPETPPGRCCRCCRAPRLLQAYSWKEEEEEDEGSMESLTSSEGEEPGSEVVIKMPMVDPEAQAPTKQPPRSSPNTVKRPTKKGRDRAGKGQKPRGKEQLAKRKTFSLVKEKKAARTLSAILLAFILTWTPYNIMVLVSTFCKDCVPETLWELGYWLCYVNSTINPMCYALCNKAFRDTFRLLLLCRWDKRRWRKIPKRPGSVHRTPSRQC
Experimental: (§1) Functional assays were performed using the Alphascreen Surefire phospho-ERK1/2 assay (Crouch & Osmond, Comb. Chem. High Throughput Screen, 2008). ERK1/2 phosphorylation is a downstream consequence of both Gq/11 and Gi/o protein coupled receptor activation, making it highly suitable for the assessment of M1, M3 (Gq/11 coupled) and M2, M4 receptors (Gi/o coupled), rather than using different assay formats for different receptor subtypes. CHO cells stably expressing the human muscarinic M1, M2, M3 or M4 receptor were plated (25K/well) onto 96-well tissue culture plates in MEM-alpha+10% dialysed FBS. Once adhered, cells were serum-starved overnight. Agonist stimulation was performed by the addition of 5 μL agonist to the cells for 5 min (37° C.). Media was removed and 50 μL of lysis buffer added. After 15 min, a 4 μL sample was transferred to 384-well plate and 7 μL of detection mixture added. Plates were incubated for 2 h with gentle agitation in the dark and then read on a PHERAstar plate reader.
(§2) pEC50 and Emax figures were calculated from the resulting data for each receptor subtype.

[2] = biological target: T2, human muscarinic M2 receptor (Homo sapiens, UniProt P08172); assay: Phospho-ERK1/2 assay, muscarinic M2; settings: for EC50: CHO cells expressing human M2, phospho-ERK1/2 Alphascreen, read-out: pEC50 M2 (converted); for Emax: CHO, read-out: % Emax cf. ACh (M2)
T2 sequence (P08172 1-466): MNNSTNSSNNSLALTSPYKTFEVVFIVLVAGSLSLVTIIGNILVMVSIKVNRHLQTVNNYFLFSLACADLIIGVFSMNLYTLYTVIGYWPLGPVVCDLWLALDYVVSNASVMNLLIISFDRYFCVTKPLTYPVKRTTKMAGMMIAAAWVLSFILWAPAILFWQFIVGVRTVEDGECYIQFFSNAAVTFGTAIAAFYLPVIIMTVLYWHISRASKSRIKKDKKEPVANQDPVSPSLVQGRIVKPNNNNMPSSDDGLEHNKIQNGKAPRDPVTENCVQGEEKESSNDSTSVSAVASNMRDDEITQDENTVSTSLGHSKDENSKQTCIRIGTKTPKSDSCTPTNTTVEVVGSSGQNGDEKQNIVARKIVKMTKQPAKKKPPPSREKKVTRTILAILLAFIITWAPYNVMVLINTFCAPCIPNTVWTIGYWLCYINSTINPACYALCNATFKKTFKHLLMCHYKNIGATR
Experimental: as §1, §2

[3] = biological target: T3, human muscarinic M3 receptor (Homo sapiens, UniProt P20309); assay: Phospho-ERK1/2 assay, muscarinic M3; settings: for EC50: CHO cells expressing human M3, phospho-ERK1/2 Alphascreen, read-out: pEC50 M3 (converted); for Emax: CHO, read-out: % Emax cf. ACh (M3)
T3 construct: expressed in transfected cells
Experimental: as §1, §2

[4] = biological target: T4, human muscarinic M4 receptor (Homo sapiens, UniProt P08173); assay: Phospho-ERK1/2 assay, muscarinic M4; settings: for EC50: CHO cells expressing human M4, phospho-ERK1/2 Alphascreen, read-out: pEC50 M4 (converted); for Emax: CHO, read-out: % Emax cf. ACh (M4)
T4 construct: expressed in transfected cells
T4 sequence (P08173 1-479): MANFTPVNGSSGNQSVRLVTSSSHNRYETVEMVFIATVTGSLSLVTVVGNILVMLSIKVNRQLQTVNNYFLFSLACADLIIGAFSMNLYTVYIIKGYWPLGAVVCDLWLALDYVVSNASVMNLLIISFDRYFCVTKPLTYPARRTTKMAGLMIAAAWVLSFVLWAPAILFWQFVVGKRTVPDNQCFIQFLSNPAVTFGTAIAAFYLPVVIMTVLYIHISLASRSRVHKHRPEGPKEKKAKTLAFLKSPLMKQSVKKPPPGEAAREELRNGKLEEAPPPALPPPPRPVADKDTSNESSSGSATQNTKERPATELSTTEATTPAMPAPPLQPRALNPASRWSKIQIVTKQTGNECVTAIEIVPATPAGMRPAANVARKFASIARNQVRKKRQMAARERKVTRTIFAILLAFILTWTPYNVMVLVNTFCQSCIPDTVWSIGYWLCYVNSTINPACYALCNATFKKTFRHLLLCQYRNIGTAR
Experimental: as §1, §2

T3 sequence (P20309 whole entry): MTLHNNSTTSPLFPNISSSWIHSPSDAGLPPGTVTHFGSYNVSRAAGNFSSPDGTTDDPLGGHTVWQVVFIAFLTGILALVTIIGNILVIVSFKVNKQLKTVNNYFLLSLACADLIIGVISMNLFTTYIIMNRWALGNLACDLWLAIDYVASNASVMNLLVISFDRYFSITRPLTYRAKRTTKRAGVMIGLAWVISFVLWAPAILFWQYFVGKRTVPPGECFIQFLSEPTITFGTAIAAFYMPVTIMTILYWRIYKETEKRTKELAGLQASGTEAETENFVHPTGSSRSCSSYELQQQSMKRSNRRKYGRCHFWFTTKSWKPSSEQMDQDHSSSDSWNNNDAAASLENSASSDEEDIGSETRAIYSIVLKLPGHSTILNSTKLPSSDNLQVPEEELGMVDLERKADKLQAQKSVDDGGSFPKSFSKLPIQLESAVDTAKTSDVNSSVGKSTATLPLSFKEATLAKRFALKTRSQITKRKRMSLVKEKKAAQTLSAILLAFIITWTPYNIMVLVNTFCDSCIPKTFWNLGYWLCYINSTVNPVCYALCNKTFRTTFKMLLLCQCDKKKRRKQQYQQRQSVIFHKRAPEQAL

Row | EC50 [1] [nM] | Emax [1] [%] | EC50 [2] [nM] | Emax [2] [%] | EC50 [3] [nM] | Emax [3] [%] | EC50 [4] [nM] | Emax [4] [%] | SMILES
1 | 61.7 | 88 | > 20000 | 12 | > 20000 | 12 | 537 | 73 | CCOC(=O)N1CCCC(N2CCC(F)(C(=O)NC3(C)CCCC3)CC2)CC1 (stereo not shown) [Example 48, ethyl 4-(4-fluoro-4-((1-methylcyclopentyl)carbamoyl)piperidin-1-yl)azepane-1-carboxylate]
2 | 19.5 | 102 | > 20000 | 17 | > 20000 | 2 | 603 | 90 | CCOC(=O)N1CCCC(N2CCC(F)(C(=O)NC3(C)CCC3)CC2)CC1 (stereo not shown) [Example 50, ethyl 4-(4-fluoro-4-((1-methylcyclobutyl)carbamoyl)piperidin-1-yl)azepane-1-carboxylate]
3 | 51.3 | 107 | > 20000 | 12 | > 20000 | 6 | 708 | 93 | CCOC(=O)N1CCCC(N2CCC(F)(C(=O)NC3CCCC3)CC2)CC1 (stereo not shown) [Example 51, ethyl 4-(4-fluoro-4-((cyclopentyl)carbamoyl)piperidin-1-yl)azepane-1-carboxylate]
4 | 229 | 95 | > 20000 | 9 | > 20000 | 5 | 501 | 84 | CCOC(=O)N1CCCC(N2CCC(F)(C(=O)NCC3CC3)CC2)CC1 (stereo not shown) [Example 52, ethyl 4-(4-fluoro-4-((cyclopropylmethyl)carbamoyl)piperidin-1-yl)azepane-1-carboxylate]
5 | 97.7 | 122 | > 20000 | 9 | > 20000 | 17 | 977 | 90 | CCOC(=O)N1CCCC(N2CCC(F)(C(=O)NCC3CCCC3)CC2)CC1 (stereo not shown) [Example 53, ethyl 4-(4-fluoro-4-((cyclopentylmethyl)carbamoyl)piperidin-1-yl)azepane-1-carboxylate]
6 | 49 | 124 | > 20000 | 15 | > 20000 | 6 | 229 | 114 | CCOC(=O)N1CCCC(N2CCC(F)(C(=O)NC(C)(C)C3CC3)CC2)CC1 (stereo not shown) [Example 54, ethyl 4-(4-fluoro-4-((2-cyclopropylpropan-2-yl)carbamoyl)piperidin-1-yl)azepane-1-carboxylate]
7 | 186 | 75 | > 20000 | 17 | > 20000 | 0 | 1350 | 69 | CCOC(=O)N1CCCC(N2CCC(F)(C(=O)NC3CCC3)CC2)CC1 (stereo not shown) [Example 55, ethyl 4-(4-fluoro-4-((cyclobutyl)carbamoyl)piperidin-1-yl)azepane-1-carboxylate]
8 | 64.6 | 108 | > 20000 | 4 | > 20000 | 8 | 1350 | 46 | CCOC(=O)N1CCCC(N2CCC(C)(C(=O)NCC(C)C)CC2)CC1 (stereo not shown) [Example 56, ethyl 4-(4-methyl-4-((2-methylpropyl)carbamoyl)piperidin-1-yl)azepane-1-carboxylate]
9 | 93.3 | 93 | > 20000 | 5 | > 20000 | 8 | 417 | 82 | C#CCOC(=O)N1CCCC(N2CCC(C(=O)NCC(C)C)CC2)CC1 (stereo not shown) [Example 57, prop-2-yn-1-yl-4-(4-((2-methylpropyl)carbamoyl)piperidin-1-yl)azepane-1-carboxylate]
10 | 69.2 | 107 | > 20000 | 5 | > 20000 | 5 | 646 | 89 | CCOC(=O)N1CCC[C@H](N2CCC(C(=O)NCC(C)C)CC2)CC1 [Example 63]
11 | 107 | 104 | > 20000 | 5 | > 20000 | 9 | 3240 | 81 | CCOC(=O)N1CCC[C@@H](N2CCC(C(=O)NCC(C)C)CC2)CC1 [Example 64]
12 | 275 | 94 | > 20000 | 12 | > 20000 | 0 | 2450 | 66 | CCOC(=O)N1CCC[C@@H](N2CCC(C(=O)NC3(C)CCC3)CC2)CC1 [Example 66, ethyl (4R)-4-{4-[(1-methylcyclobutyl)carbamoyl]piperidin-1-yl}azepane-1-carboxylate]
13 | 126 | 114 | > 20000 | 48 | > 20000 | 4 | 501 | 104 | CCOC(=O)N1CCC[C@H](N2CCC(C(=O)NC(C)(C)C)CC2)CC1 [Example 67, ethyl (4S)-4-[4-(tert-butylcarbamoyl)piperidin-1-yl]azepane-1-carboxylate]
14 | 10.5 | 120 | > 20000 | 12 | > 20000 | 14 | 240 | 78 | CCOC(=O)N1CCCC(N2CCC(C(=O)NCC3(C)CCC3)CC2)CC1 (stereo not shown) [Example 69, ethyl 4-(4-{[(1-methylcyclobutyl)methyl]carbamoyl}piperidin-1-yl)azepane-1-carboxylate]
15 | 269 | 107 | > 20000 | 5 | > 20000 | 3 | 794 | 55 | CCOC(=O)N1CCCC(N2CCC(C(=O)NC3(C(F)(F)F)CCC3)CC2)CC1 (stereo not shown) [Example 70]
16 | 52.5 | 132 | > 20000 | 19 | > 20000 | 4 | 282 | 97 | CCOC(=O)N1CCCC(N2CCC(C(=O)NC3(CC)CCC3)CC2)CC1 (stereo not shown) [Example 74]
17 | 87.1 | 102 | > 20000 | 14 | > 20000 | 13 | 794 | 87 | [2H]C([2H])([2H])C([2H])(C([2H])([2H])[2H])C([2H])([2H])NC(=O)C1CCN(C2CCCN(C(=O)OCC)CC2)CC1 (stereo not shown) [Example 75, ethyl 4-(4-{[2-(^2H3)methyl(^2H6)propyl]carbamoyl}piperidin-1-yl)azepane-1-carboxylate]
